Earlier results in US20050004032A1, “Collagen mimics” (priority 2003, published 2005).

Row | Substance | Tm, temperature at the midpoint of the thermal transition as measured by CD spectroscopy (literature values per Table 1 footnotes b-f, some reported for the 10-repeat peptides) | melting temperature of a triple helix (Sakakibara et al. 1973) [°C]
1 | (ProProGly)7 | 6-7^c ° C. | –
2 | (ProProGly)10 | – | 24
